pIC50: −log10 of the molar value. Values belong to the compound of their own block, whether it stands above or below them.
Tested on: 233499-124-R-J3-PDC complex spheroid viability
Test: Anticancer human tumor 233499-124-R-J3-PDC patient-derived colon adenocarcinoma cell line growth inhibition [CLK]
Settings: for pIC50: curve of first compound; for viability, T/C: stronger effect = lower value
Procedure, shortened: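 Patient-derived tumor cells grown as complex spheroids with HUVEC endothelial cells and mesenchymal stem cells, treated with drug combinations. Concentrations descend in half-log steps from near clinical Cmax, or from 10 microM if Cmax unknown.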

[1] = second compound 0.0316 µM, first compound 0.0316 µM
[2] = second compound 0.0316 µM, first compound 0.1 µM
[3] = second compound 0.0316 µM, first compound 0.316 µM
[4] = second compound 0.0316 µM, first compound 1 µM
[5] = second compound 0.0316 µM, first compound 3.16 µM
[6] = second compound 0.0316 µM, first compound 10 µM
[7] = second compound 0.1 µM, first compound 0.0316 µM
[8] = second compound 0.1 µM, first compound 0.1 µM
[9] = second compound 0.1 µM, first compound 0.316 µM
[10] = second compound 0.1 µM, first compound 1 µM
[11] = second compound 0.1 µM, first compound 3.16 µM
[12] = second compound 0.1 µM, first compound 10 µM
[13] = second compound 0.316 µM, first compound 0.0316 µM
[14] = second compound 0.316 µM, first compound 0.1 µM
[15] = second compound 0.316 µM, first compound 0.316 µM
[16] = second compound 0.316 µM, first compound 1 µM
[17] = second compound 0.316 µM, first compound 3.16 µM
[18] = second compound 0.316 µM, first compound 10 µM
[19] = second compound 1 µM, first compound 0.0316 µM
[20] = second compound 1 µM, first compound 0.1 µM
[21] = second compound 1 µM, first compound 0.316 µM
[22] = second compound 1 µM, first compound 1 µM
[23] = second compound 1 µM, first compound 3.16 µM
[24] = second compound 1 µM, first compound 10 µM
[25] = second compound 3.16 µM, first compound 0.0316 µM
[26] = second compound 3.16 µM, first compound 0.1 µM
[27] = second compound 3.16 µM, first compound 0.316 µM
[28] = second compound 3.16 µM, first compound 1 µM
[29] = second compound 3.16 µM, first compound 3.16 µM
[30] = second compound 3.16 µM, first compound 10 µM
[31] = second compound 10 µM, first compound 0.0316 µM
[32] = second compound 10 µM, first compound 0.1 µM
[33] = second compound 10 µM, first compound 0.316 µM
[34] = second compound 10 µM, first compound 1 µM
[35] = second compound 10 µM, first compound 3.16 µM
[36] = second compound 10 µM, first compound 10 µM
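Further: spheroids exposed to the drug combinations for seven days.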
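Wherever viability, T/C is given: percent viability relative to DMSO vehicle control wells taken as 100%.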

Compound: Nc1ccccc1NC(=O)c1ccc(CNC(=O)OCc2cccnc2)cc1 + CN1CCN(c2cc(C(=O)Nc3cc4cc(-c5cnn(C)c5)ccc4cn3)ccn2)CC1
pIC50 (second compound 0.0316 µM): 5.77
pIC50 (second compound 0.1 µM): 5.95
pIC50 (second compound 0.316 µM): > 7.50
pIC50 (second compound 1 µM): > 7.50
pIC50 (second compound 3.16 µM): > 7.50
pIC50 (second compound 10 µM): > 7.50
viability, T/C [1]: 96.3%
viability, T/C [2]: 89.9%
viability, T/C [3]: 93.6%
viability, T/C [4]: 80.5%
viability, T/C [5]: 13.5%
viability, T/C [6]: 0.6%
viability, T/C [7]: 89.3%
viability, T/C [8]: 100%
viability, T/C [9]: 80.2%
viability, T/C [10]: 56.6%
viability, T/C [11]: 2.92%
viability, T/C [12]: 0.44%
viability, T/C [13]: 17.7%
viability, T/C [14]: 47.3%
viability, T/C [15]: 2.45%
viability, T/C [16]: 0.63%
viability, T/C [17]: 0.47%
viability, T/C [18]: 0.63%
viability, T/C [19]: 0.46%
viability, T/C [20]: 0.44%
viability, T/C [21]: 0.62%
viability, T/C [22]: 0.56%
viability, T/C [23]: 0.57%
viability, T/C [24]: 1.23%
viability, T/C [25]: 0.65%
viability, T/C [26]: 0.68%
viability, T/C [27]: 0.7%
viability, T/C [28]: 0.66%
viability, T/C [29]: 0.69%
viability, T/C [30]: 0.59%
viability, T/C [31]: 0.18%
viability, T/C [32]: 0.24%
viability, T/C [33]: 0.28%
viability, T/C [34]: 0.28%
viability, T/C [35]: 0.26%
viability, T/C [36]: 0.35%

pIC50 (second compound 0.0316 µM): 6.76
pIC50 (second compound 0.1 µM): 6.95
pIC50 (second compound 0.316 µM): 7.05
pIC50 (second compound 1 µM): 7.59
pIC50 (second compound 3.16 µM): 7.38
pIC50 (second compound 10 µM): 7.57
Compound: COc1c(OCCCN2CCOCC2)ccc2c3n(c(=NC(=O)c4cnc(N)nc4)nc12)CCN3 + CNC(=O)c1ccc(Nc2nc(OC3CCCC3)c3c(-c4ccc5nc(C)oc5c4)c[nH]c3n2)c(OC)c1
viability, T/C (second compound 0.0316 µM, first compound 0.00316 µM): 90%
viability, T/C (second compound 0.0316 µM, first compound 0.01 µM): 91%
viability, T/C [1]: 81.6%
viability, T/C [2]: 65.3%
viability, T/C [3]: 33.2%
viability, T/C [4]: 5.74%
viability, T/C (second compound 0.1 µM, first compound 0.00316 µM): 70.5%
viability, T/C (second compound 0.1 µM, first compound 0.01 µM): 85.4%
viability, T/C [7]: 73.2%
viability, T/C [8]: 53.4%
viability, T/C [9]: 16.1%
viability, T/C [10]: 3.37%
viability, T/C (second compound 0.316 µM, first compound 0.00316 µM): 75.3%
viability, T/C (second compound 0.316 µM, first compound 0.01 µM): 81.8%
viability, T/C [13]: 68.8%
viability, T/C [14]: 45.7%
viability, T/C [15]: 22.6%
viability, T/C [16]: 3.62%
viability, T/C (second compound 1 µM, first compound 0.00316 µM): 73.5%
viability, T/C (second compound 1 µM, first compound 0.01 µM): 59.4%
viability, T/C [19]: 49%
viability, T/C [20]: 31.6%
viability, T/C [21]: 23%
viability, T/C [22]: 3.52%
viability, T/C (second compound 3.16 µM, first compound 0.00316 µM): 62.9%
viability, T/C (second compound 3.16 µM, first compound 0.01 µM): 68.1%
viability, T/C [25]: 50%
viability, T/C [26]: 38.8%
viability, T/C [27]: 15.3%
viability, T/C [28]: 2.16%
viability, T/C (second compound 10 µM, first compound 0.00316 µM): 75.1%
viability, T/C (second compound 10 µM, first compound 0.01 µM): 65.9%
viability, T/C [31]: 45.5%
viability, T/C [32]: 31%
viability, T/C [33]: 10.5%
viability, T/C [34]: 2.07%

Compound: O=C(c1cc(Cc2n[nH]c(=O)c3ccccc23)ccc1F)N1CCN(C(=O)C2CC2)CC1 + CN1CCN(c2cc(C(=O)Nc3cc4cc(-c5cnn(C)c5)ccc4cn3)ccn2)CC1
pIC50 (second compound 0.0316 µM): < 5.00
pIC50 (second compound 0.1 µM): < 5.00
pIC50 (second compound 0.316 µM): < 5.00
pIC50 (second compound 1 µM): > 7.50
pIC50 (second compound 3.16 µM): > 7.50
pIC50 (second compound 10 µM): > 7.50
viability, T/C [1]: 79.9%
viability, T/C [2]: 98.1%
viability, T/C [3]: 96.8%
viability, T/C [4]: 108%
viability, T/C [5]: 99.4%
viability, T/C [6]: 93.2%
viability, T/C [7]: 98.6%
viability, T/C [8]: 105%
viability, T/C [9]: 103%
viability, T/C [10]: 109%
viability, T/C [11]: 110%
viability, T/C [12]: 82.4%
viability, T/C [13]: 103%
viability, T/C [14]: 99.4%
viability, T/C [15]: 103%
viability, T/C [16]: 93.8%
viability, T/C [17]: 96.8%
viability, T/C [18]: 87.1%
viability, T/C [19]: 3.57%
viability, T/C [20]: 2.51%
viability, T/C [21]: 2.71%
viability, T/C [22]: 16.4%
viability, T/C [23]: 3.61%
viability, T/C [24]: 1.27%
viability, T/C [25]: 0.91%
viability, T/C [26]: 0.94%
viability, T/C [27]: 0.75%
viability, T/C [28]: 0.71%
viability, T/C [29]: 0.8%
viability, T/C [30]: 1.09%
viability, T/C [31]: 0.64%
viability, T/C [32]: 0.56%
viability, T/C [33]: 0.6%
viability, T/C [34]: 4.25%
viability, T/C [35]: 0.89%
viability, T/C [36]: 1.84%

Source: PubChem BioAssay AID2060613 (Molecular Pharmacology Branch, DTP, NCI, 2025)
